Results published in patent US12545637B2, “Extrahepatic targeted cationic lipid compound with high efficiency and low toxicity and its composition” (BEIJING YOUCARE KECHUANG PHARMACEUTICAL TECHNOLOGY CO., LTD., priority 2023, dated 2026).
Several values for one entry are separate records, joined by “and”; a condition that tells them apart may be missing. Identical values can stand only once.

Tests used:
Type in all cases: cell-based
293T cells [1] = assay: Fluorescent detection of Fluc-mRNA (cell transfection efficiency of LNP formulations); settings: for Relative light unit (RLU): LNP with 0.3 μg Fluc-mRNA, 96-well plate, 24 hours; for cell transfection efficiency, times that of YK-415: ratio vs YK-415; for cell transfection efficiency, times that of YK-417: ratio vs YK-417; for cell transfection efficiency, times that of YK-418: ratio vs YK-418; for cell transfection efficiency, times that of YK-424: ratio vs YK-424; for RLU value, times that of compound 21: ratio vs compound 21; for RLU value, times that of compound 23: ratio vs compound 23
293T cells [2] = assay: Cell transfection test of LNP formulation of eGFP-mRNA (optimization of preparation conditions); settings: for transfection efficiency at different molar ratios of polymer-conjugated lipid DMG-PEG2000 to carrier: 0.5% to 15%; for transfection effect at different molar ratios of cationic lipid, neutral lipid, structured lipid and polymer-conjugated lipid: 75:5:15:5 to 25:5:65:5
Procedure: The cationic lipid compound YK-407 synthesized in Example 1 was dissolved in ethanol with DSPC (AVT (Shanghai) Pharmaceutical Technology Co., Ltd.), cholesterol (AVT (Shanghai) Pharmaceutical Technology Co., Ltd.) and DMG-PEG2000 according to a molar ratio of 49:10:39.5:1.5, respectively, to prepare an ethanol lipid solution. The ethanol lipid solution was quickly added to citrate buffer (pH=4-5) by ethanol injection method, and vortexed for 30s for later use. eGFP-mRNA was diluted in citrate buffer (pH=4-5) to give an aqueous mRNA solution. A certain volume of liposome solution and mRNA aqueous solution were used to prepare liposomes at weight ratios of total lipids to mRNA of 5:1, 10:1, 15:1, 20:1, 30:1 and 35:1, respectively. The mixtures were sonicated at 25° C. for 15 min (with an ultrasonic frequency of 40 kHz and an ultrasonic power of 800 W). The resulted liposomes were diluted to 10 times volume with PBS, and then ultrafiltered with a 300KDa ultrafiltration tube to remove ethanol. Then the volume was fixed to a certain volume with PBS to give an LNP formulation encapsulating eGFP-mRNA using cationic lipid YK-407/DSPC/cholesterol/DMG-PEG2000 (49:10:39.5:1.5 in molar percentage).
The LNP formulation encapsulating eGFP-mRNA was prepared according to the method in 1, wherein the molar ratios of cationic lipid YK-407 to neutral lipid DSPC were 1:1, 3:1, 3.5:1, 4:1, 4.5:1, 4.9:1, 10:1, 15:1 and 20:1.
The LNP formulation encapsulating eGFP-mRNA was prepared according to the method in 1, wherein the cationic lipid in the carrier was YK-407, and the molar ratios of the polymer-conjugated lipid DMG-PEG2000 to the carrier were 0.5%, 1.5%, 3.5%, 5%, 10% and 15%, respectively.
The LNP formulation encapsulating eGFP-mRNA was prepared according to the method in 1, wherein the molar ratios of cationic lipid YK-407, neutral lipid DSPC, structured lipid cholesterol and polymer-conjugated lipid DMG-PEG2000 were 75:5:15:5, 49:10:39.5:1.5, 45:10:43.5:1.5, 45:25:20:10, 40:10:48.5:1.5, 35:10:53.5:1.5 and 25:5:65:5, respectively.
Cell recovery and passage: 293T cells were recovered, cultured in a culture dish, and passaged to the required number of cells.
Seeding plate: The cells in the culture dish were digested and counted. Cells were spread in a 96-well plate at 10,000 cells per well and in a 12-well plate at 150,000 cells per well. Cells were cultured overnight until the cells adhered to the wall.
Cell transfection test: The LNP formulation containing 1.5 μg of eGFP-mRNA prepared in Example 2 (the cationic lipid in the carrier was YK-407) and the Lipofectamin 3000 formulation of eGFP-mRNA were added respectively to the cell culture medium of the 12-well plate, and further incubated for 24 hours. The transfection efficiency of different samples was then investigated according to the fluorescence intensity by observing with a fluorescence microscope.

293T cells [3] = assay: Cell survival rate assay (CCK-8); settings: for Cell survival rate: LNP with 1.5 μg Fluc-mRNA, 24 hours, CCK-8; for cell survival rate higher than ALC-0315: difference vs ALC-0315; for cell survival rate higher than HIMA: difference vs HIMA (HHMA); for cell survival rate higher than Lipofectamine 3000: difference vs Lipofectamine 3000; for cell survival rate higher than SM-102: difference vs SM-102; for cell survival rate higher than YK-404: difference vs YK-404; for cell survival rate higher than YK-405: difference vs YK-405; for cell survival rate higher than YK-406: difference vs YK-406; for cell survival rate higher than YK-408: difference vs YK-408; for cell survival rate higher than YK-409: difference vs YK-409; for cell survival rate higher than YK-410: difference vs YK-410; for cell survival rate higher than YK-411: difference vs YK-411; for cell survival rate higher than YK-412: difference vs YK-412; for cell survival rate higher than YK-413: difference vs YK-413; for cell survival rate higher than YK-414: difference vs YK-414; for cell survival rate higher than YK-415: difference vs YK-415; for cell survival rate higher than YK-416: difference vs YK-416; for cell survival rate higher than YK-417: difference vs YK-417; for cell survival rate higher than YK-418: difference vs YK-418; for cell survival rate higher than YK-419: difference vs YK-419; for cell survival rate higher than YK-420: difference vs YK-420; for cell survival rate higher than YK-421: difference vs YK-421; for cell survival rate higher than YK-424: difference vs YK-424; for cell survival rate higher than compound 21: difference vs compound 21; for cell survival rate higher than compound 23: difference vs compound 23; for cytotoxicity reduced compared with YK-411: rounded summary statement vs YK-411
How it was run: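 293T cells seeded at 10,000 cells/well, cultured overnight, then exposed 24 h to LNP carrying 1.5 μg Fluc-mRNA (cationic:neutral:structured:PEG-type lipid 49:10:39.5:1.5) or Lipofectamine 3000. Viability read by CCK-8, 1 h incubation, absorbance at 450 nm.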

SMILES: CCCCCCCCCCCOC(=O)CCCN(CCO)CCN(CCO)CCCCCC(=O)OC(CCCCCCCC)CCCCCCCC [YK-407]
- Relative light unit (RLU) (293T cells [1]): 20385506 RLU
- cell transfection efficiency, times that of YK-415 (293T cells [1]): 68.40
- cell transfection efficiency, times that of YK-417 (293T cells [1]): 173.81 and 170
- cell transfection efficiency, times that of YK-418 (293T cells [1]): 183.24 and 180
- cell transfection efficiency, times that of YK-424 (293T cells [1]): 7.07
- RLU value, times that of compound 21 (293T cells [1]): 13.49 and 13
- RLU value, times that of compound 23 (293T cells [1]): 14.53 and 15
- transfection efficiency at different molar ratios of polymer-conjugated lipid DMG-PEG2000 to carrier (293T cells [2]): the transfection efficiency was the highest when the molar ratio was 1.5%
- transfection effect at different molar ratios of cationic lipid, neutral lipid, structured lipid and polymer-conjugated lipid (293T cells [2]): the transfection effect was the best when the ratio was 40:10:48.5:1.5
- transfection efficiency at different molar ratios of cationic lipid to neutral lipid DSPC (293T cells [2]; ratios 1:1 to 20:1): the transfection efficiency was the highest at the molar ratio of cationic lipid to neutral lipid of 4:1
- transfection effect at different weight ratios of carrier to mRNA (293T cells [2]; ratios 5:1, 10:1, 15:1, 20:1, 30:1 and 35:1): the ratio of 15:1 had the best transfection effect
- Cell survival rate (293T cells [3]): 71.37%
- cell survival rate higher than ALC-0315 (293T cells [3]): 24.16%
- cell survival rate higher than HIMA (293T cells [3]): 7.10%
- cell survival rate higher than Lipofectamine 3000 (293T cells [3]): 49.71%
- cell survival rate higher than SM-102 (293T cells [3]): 3.47%
- cell survival rate higher than YK-404 (293T cells [3]): 29.25%
- cell survival rate higher than YK-405 (293T cells [3]): 29.51%
- cell survival rate higher than YK-406 (293T cells [3]): 46.41%
- cell survival rate higher than YK-408 (293T cells [3]): 29.06%
- cell survival rate higher than YK-409 (293T cells [3]): 25.26%
- cell survival rate higher than YK-410 (293T cells [3]): 26.45%
- cell survival rate higher than YK-411 (293T cells [3]): 55.04%
- cell survival rate higher than YK-412 (293T cells [3]): 17.23%
- cell survival rate higher than YK-413 (293T cells [3]): 24.17%
- cell survival rate higher than YK-414 (293T cells [3]): 42.62%
- cell survival rate higher than YK-415 (293T cells [3]): 10.21%
- cell survival rate higher than YK-416 (293T cells [3]): 30.40%
- cell survival rate higher than YK-417 (293T cells [3]): 50.03%
- cell survival rate higher than YK-418 (293T cells [3]): 50.32%
- cell survival rate higher than YK-419 (293T cells [3]): 32.45%
- cell survival rate higher than YK-420 (293T cells [3]): 35.78%
- cell survival rate higher than YK-421 (293T cells [3]): 35.66%
- cell survival rate higher than YK-424 (293T cells [3]): 43.44%
- cell survival rate higher than compound 21 (293T cells [3]): 3.53%
- cell survival rate higher than compound 23 (293T cells [3]): 2.26%
- cytotoxicity reduced compared with YK-411 (293T cells [3]): 50% and 55%

SMILES: CCCCCCCCC(CCCCCCCC)COC(=O)CCCCCN(CCCO)CCN(CCCO)CCCCCC(=O)OCC(CCCCCCCC)CCCCCCCC [YK-422, di(2-octyldecyl) 6,6′-(ethane-1,2-diyl-bis((3-hydroxypropyl)azanediyl))dihexanoate]
- Relative light unit (RLU) (293T cells [1]): 6432971 RLU
- cell transfection efficiency, times that of YK-415 (293T cells [1]): 21.59
- cell transfection efficiency, times that of YK-417 (293T cells [1]): 54.85
- cell transfection efficiency, times that of YK-418 (293T cells [1]): 57.82
- cell transfection efficiency, times that of YK-424 (293T cells [1]): 2.23
- RLU value, times that of compound 21 (293T cells [1]): 4.26
- RLU value, times that of compound 23 (293T cells [1]): 4.59
- transfection efficiency at different molar ratios of polymer-conjugated lipid DMG-PEG2000 to carrier (293T cells [2]): same results
- transfection effect at different molar ratios of cationic lipid, neutral lipid, structured lipid and polymer-conjugated lipid (293T cells [2]): same results
- Cell survival rate (293T cells [3]): 70.48%
- cell survival rate higher than ALC-0315 (293T cells [3]): 23.27%
- cell survival rate higher than HIMA (293T cells [3]): 6.21%
- cell survival rate higher than Lipofectamine 3000 (293T cells [3]): 48.82%
- cell survival rate higher than SM-102 (293T cells [3]): 2.58%
- cell survival rate higher than YK-404 (293T cells [3]): 28.36%
- cell survival rate higher than YK-405 (293T cells [3]): 28.62%
- cell survival rate higher than YK-406 (293T cells [3]): 45.52%
- cell survival rate higher than YK-408 (293T cells [3]): 28.17%
- cell survival rate higher than YK-409 (293T cells [3]): 24.37%
- cell survival rate higher than YK-410 (293T cells [3]): 25.56%
- cell survival rate higher than YK-411 (293T cells [3]): 54.15%
- cell survival rate higher than YK-412 (293T cells [3]): 16.34%
- cell survival rate higher than YK-413 (293T cells [3]): 23.28%
- cell survival rate higher than YK-414 (293T cells [3]): 41.73%
- cell survival rate higher than YK-415 (293T cells [3]): 9.32%
- cell survival rate higher than YK-416 (293T cells [3]): 29.51%
- cell survival rate higher than YK-417 (293T cells [3]): 49.14%
- cell survival rate higher than YK-418 (293T cells [3]): 49.43%
- cell survival rate higher than YK-419 (293T cells [3]): 31.56%
- cell survival rate higher than YK-420 (293T cells [3]): 34.89%
- cell survival rate higher than YK-421 (293T cells [3]): 34.77%
- cell survival rate higher than YK-424 (293T cells [3]): 42.55%
- cell survival rate higher than compound 21 (293T cells [3]): 2.64%
- cell survival rate higher than compound 23 (293T cells [3]): 1.37%
- cytotoxicity reduced compared with YK-411 (293T cells [3]): 50%
